Laboratory results: BindingDB's records for doi:10.1021/jm800571m (The Scripps Research Institute, 2008)

Target: T1, Adenosine 5'-phosphosulfate reductase (Mycobacterium tuberculosis (strain CDC 1551 / Oshkosh), UniProt P9WIK2)
T1 sequence (P9WIK2 whole entry): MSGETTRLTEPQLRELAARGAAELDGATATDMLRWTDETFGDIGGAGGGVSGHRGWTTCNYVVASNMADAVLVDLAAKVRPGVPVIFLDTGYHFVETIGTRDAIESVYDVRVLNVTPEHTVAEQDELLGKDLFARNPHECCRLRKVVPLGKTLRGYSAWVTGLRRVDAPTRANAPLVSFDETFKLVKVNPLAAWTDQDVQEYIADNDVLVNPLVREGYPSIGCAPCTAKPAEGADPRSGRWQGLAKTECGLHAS
Experiment: Determination of Dissociation Constant (Kd)
Settings: pH 7.5; 30 °C
Protocol: Values of Ki were determined from the dependence of the observed rate constant (kobs) on inhibitor concentration. […] A range of inhibitor concentrations was employed from at least 5-fold below to 10-fold above the inhibition constant. Nonlinear least-squares fits of the equation for competitive inhibition gave excellent fits in all cases, and the standard error was typically less than 15%.

Structure (SMILES)	Kd
O=C(O)CSc1nnc2c3ccccc3c3ccccc3c2n1 [2-(1,2,4-triazatriphenylen-3-ylsulfanyl)acetic acid]	46.8 µM
CC(=O)[C@H]1CC[C@@H]2[C@]1(C)CC=C1[C@]23C=C[C@]2(C[C@@H](O)CC[C@]12C)C(C(=O)O)C3C(=O)O (stereo partly drawn) [(1R,2R,5S,6S,10S,13S,15R)-5-acetyl-13-hydroxy-6,10-dimethylpentacyclo[13.2.2.0^{1,9}.0^{2,6}.0^{10,15}]nonadeca-8,18-diene-16,17-dicarboxylic acid]	127 µM
